Experiment [1] has as its system bone marrow derived murine macrophages. The experiment is described as follows: mRNA/miRNA expression in LA1-treated macrophages. The class given is cell-based. The method, then: Murine macrophage differentiation and culture-Bone marrow derived cells (BMDC) were aseptically harvested from 6-8 week-old female mice by flushing leg bones of euthanized mice with phosphate buffered saline (PBS), 0.5% BSA, 2 mM EDTA, incubating in red cell lysis buffer (155 mM NH4Cl, 10 mM NaHCO3 and 0.1 mM EDTA) and centrifuging over Histopaque 1083 to purify the mononuclear cells. Approximately 5×10^7 BMDC were purified by gradient centrifugation from the femurs and tibias of a single mouse. Purified mononuclear cells were cultured in RPMI+20% serum+50 ng/ml M-CSF (PeproTech). Macrophage Polarization-Bone marrow derived macrophages were polarized with either IFNγ (20 ng/ml, Peprotech) plus LPS (100 ng/ml, Sigma) or LPS alone for 24 h or IL-4 (20 ng/ml, Peprotech) for 24-48 h. In some cases, macrophages were incubated with inhibitors of Stat3 ([…]) or cMyc (10058-F4, Selleck). […] Secreted protein was measured in culture supernatants by ELISA assays. […] Sybr green-based qPCR was performed using primers to murine Gapdh (Mm_Gapdh_1_SG), Arg1 (Mm_[…]_SG_QT00134288) Tgfb (Mm_Tgfb_1_SG Qiagen QT00145250), […] (Mm_Il10_1_SG Qiagen QT00106169), Il6 (Mm_Il6_1_SG Qiagen QT00098875), Nos2 (Mm_Nos2_1_SG Qiagen QT00100275), Il12b (Mm_Il12b_1_SG Qiagen QT00153643), Ifng (Mm_Ifng 1_SG Qiagen QT01038821), Il1b (Mm_Il1b_2_SG Qiagen QT01048355), Tnfa (Mm_Tnfa_1_SG Qiagen QT00104006), Vegfa (Mm_Vegfa_1_SG Qiagen QT00160769), Pdgfb (Mm_Pdgfb_1_SG Qiagen QT00266910) and human GAPDH (Hs_GAPDH_1_SG Qiagen QT00079247), ARG1 (Hs_Arginase_1_SG Qiagen QT00068446, IL6 (Hs_Il6_1_SG Qiagen QT00083720), NOS2 (Hs_NOS2_1_SG Qiagen QT00068740), IL12B (Hs_IL12B_1_SG Qiagen QT00000364), and PDGFB (Hs_PDGFB_1_SG Qiagen QT00001260) (Qiagen QuantiTect Primer Assay). mRNA levels were normalized to Gapdh or GAPDH (ΔCt=Ct gene of interest-Ct Gapdh) and reported as relative mRNA expression (ΔΔCt=2^-(ΔCt sample-ΔCt control)) or fold change. […]

The next experiment deals with T1, CD11b (Homo sapiens, UniProt P11215).
T1 construct: Human CD14+ monocytes were isolated from the PBMCs; endogenous in cells; host or cells: primary human CD14+ monocytes from whole-blood PBMCs
The experiment in a line: Cell adhesion assay on ICAM-1 coated substrates. The class given is cell-based. To be noted: LA1 20 μM. As for the experimental part:
Cell Adhesion Assay— PBMCs were extracted from human whole blood using the vendor instructions for Sep Mate-50 tubes (#15450, Stem Cell). Human CD14+ monocytes were isolated from the PBMCs using the vendor instructions for the EasySep™ Human Monocyte Isolation Kit (Catalog #19359, Stem Cell). Briefly, 384-well plates (#3700, Corning) were coated with recombinant human ICAM1 (750 ng/mL, #720-IC, R&D Systems), or M1/70 (10 ug/mL, #101202, Biolegend) or IB4 (10 μg/mL, #167-020, Ancell) overnight at 4° C. Wells were blocked with 1% milk dissolved in TBS for 1 hr at room temperature. All wells received Ca^2+/Mg^2+ ions (1 mM each physiological concentration, baseline control) except for the positive control wells that received 1 mM Mn^2+ ions. A stock solution of LA1 agonist was prepared by dissolving the compound in DMSO at a concentration of 2 mM and final dilution of LA1 in wells was 20 μM. The final concentration of DMSO in all wells was 1%. 45,000 human monocytes were seeded in each well. Some wells received human monocytes cells that were pre-blocked with anti-human CD11b (M1/70) for 15 min at 4° C. The plates were incubated at 37° C. for 30 min followed by 30 min of inversion at room temperature to remove non-adherent cells. Cells were fixed, stained with DAPI and counted using the Opera High Content Screening System (Perkin Elmer). Assays were performed in six replicate wells.

With `O=C(O)c1ccc(-c2ccc(/C=C3\SC(=S)N(Cc4ccccc4)C3=O)o2)cc1` [LA1, leukadherin 1], the “expression of Il1b, Tnfa, Il12, Nos2 and Ifng mRNAs” value in experiment [1] (IFNγ+LPS stimulated bone marrow derived murine macrophages) was “increases in expression of Il1b, Tnfa, Il12, Nos2 and Ifng mRNAs”. In addition, in experiment [1] (macrophages), the Let7a expression result is listed as “stimulated Let7a expression”; the “Pdgfb and Il6 expression” value is “inhibited Pdgfb and Il6 expression”. The “myeloid cell adhesion to ICAM-1 coated substrates” value on CD11b was “stimulated myeloid cell adhesion to ICAM-1 coated substrates”.
